Legend:
Test in all cases: relative viability (nuclei count vs DMSO), 5 days (fraction); higher = more cells survive
A-427 = test system: A-427
Summary of the method: (§1)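 Lung cancer cell lines were pin-tool dosed in 1536-well plates on the day after seeding, with either a lone drug or a fixed anchor-drug dose plus five library-drug doses (not always all listed) in √10 steps. Nuclei were counted on 4× images after 5 days. Relative viability is the ratio of treated-well to vehicle-well nuclei counts, with each value a median of duplicate plates.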

CAL-12T = test system: CAL-12T
Summary of the method: as §1

COR-L 105 = test system: COR-L 105
Summary of the method: as §1

EMC-BAC-2 = test system: EMC-BAC-2
Summary of the method: as §1

HARA = test system: HARA
Summary of the method: as §1

HCC-366 = test system: HCC-366
Summary of the method: as §1

HCC-827 = test system: HCC-827
Summary of the method: as §1

HOP-62 = test system: HOP-62
Summary of the method: as §1

LCLC-103H = test system: LCLC-103H
Summary of the method: as §1

NCI-H1355 = test system: NCI-H1355
Summary of the method: as §1

NCI-H1395 = test system: NCI-H1395
Summary of the method: as §1

NCI-H1437 = test system: NCI-H1437
Summary of the method: as §1

NCI-H1755 = test system: NCI-H1755
Summary of the method: as §1

NCI-H1792 = test system: NCI-H1792
Summary of the method: as §1

NCI-H1915 = test system: NCI-H1915
Summary of the method: as §1

NCI-H1975 = test system: NCI-H1975
Summary of the method: as §1

NCI-H2009 = test system: NCI-H2009
Summary of the method: as §1

NCI-H2228 = test system: NCI-H2228
Summary of the method: as §1

NCI-H23 = test system: NCI-H23
Summary of the method: as §1

NCI-H460 = test system: NCI-H460
Summary of the method: as §1

NCI-H727 = test system: NCI-H727
Summary of the method: as §1

SK-LU-1 = test system: SK-LU-1
Summary of the method: as §1

SW 1573 = test system: SW 1573
Summary of the method: as §1

Structure (SMILES): Oc1nc(-c2ccc(C(F)(F)F)cc2)nc2c1CSCC2 [XAV939] + Cc1nc(NC(=O)N2CCC[C@H]2C(N)=O)sc1-c1ccnc(C(C)(C)C(F)(F)F)c1 [Alpelisib] (partner 2 µM)
- relative viability (A-427; first compound 0.08 µM): 1.12
- relative viability (A-427; first compound 0.253 µM): 1.03
- relative viability (A-427; first compound 0.8 µM): 1.03
- relative viability (A-427; first compound 2.53 µM): 1.02
- relative viability (CAL-12T; first compound 0.08 µM): 1.42
- relative viability (CAL-12T; first compound 0.253 µM): 0.932
- relative viability (CAL-12T; first compound 0.8 µM): 1.2
- relative viability (CAL-12T; first compound 2.53 µM): 0.73
- relative viability (COR-L 105; first compound 0.08 µM): 1.14
- relative viability (COR-L 105; first compound 0.253 µM): 0.867
- relative viability (COR-L 105; first compound 0.8 µM): 0.952
- relative viability (COR-L 105; first compound 2.53 µM): 0.576
- relative viability (EMC-BAC-2; first compound 0.08 µM): 0.859
- relative viability (EMC-BAC-2; first compound 0.253 µM): 0.69
- relative viability (EMC-BAC-2; first compound 0.8 µM): 0.621
- relative viability (EMC-BAC-2; first compound 2.53 µM): 0.367
- relative viability (HARA; first compound 0.08 µM): 1.02
- relative viability (HARA; first compound 0.253 µM): 0.643
- relative viability (HARA; first compound 0.8 µM): 0.842
- relative viability (HARA; first compound 2.53 µM): 0.709
- relative viability (HCC-366; first compound 0.08 µM): 0.535
- relative viability (HCC-366; first compound 0.253 µM): 0.308
- relative viability (HCC-366; first compound 0.8 µM): 0.446
- relative viability (HCC-366; first compound 2.53 µM): 0.389
- relative viability (HCC-827; first compound 0.08 µM): 1.04
- relative viability (HCC-827; first compound 0.253 µM): 0.934
- relative viability (HCC-827; first compound 0.8 µM): 0.967
- relative viability (HCC-827; first compound 2.53 µM): 0.969
- relative viability (HOP-62; first compound 0.08 µM): 1.02
- relative viability (HOP-62; first compound 0.253 µM): 0.54
- relative viability (HOP-62; first compound 0.8 µM): 0.673
- relative viability (HOP-62; first compound 2.53 µM): 0.69
- relative viability (LCLC-103H; first compound 0.08 µM): 0.941
- relative viability (LCLC-103H; first compound 0.253 µM): 0.766
- relative viability (LCLC-103H; first compound 0.8 µM): 0.852
- relative viability (LCLC-103H; first compound 2.53 µM): 0.873
- relative viability (NCI-H1355; first compound 0.08 µM): 0.78
- relative viability (NCI-H1355; first compound 0.253 µM): 0.654
- relative viability (NCI-H1355; first compound 0.8 µM): 0.75
- relative viability (NCI-H1355; first compound 2.53 µM): 0.489
- relative viability (NCI-H1395; first compound 0.08 µM): 1.09
- relative viability (NCI-H1395; first compound 0.253 µM): 1.03
- relative viability (NCI-H1395; first compound 0.8 µM): 1.08
- relative viability (NCI-H1395; first compound 2.53 µM): 1.06
- relative viability (NCI-H1437; first compound 0.08 µM): 1.03
- relative viability (NCI-H1437; first compound 0.253 µM): 0.709
- relative viability (NCI-H1437; first compound 0.8 µM): 0.97
- relative viability (NCI-H1437; first compound 2.53 µM): 0.715
- relative viability (NCI-H1755; first compound 0.08 µM): 0.895
- relative viability (NCI-H1755; first compound 0.253 µM): 0.808
- relative viability (NCI-H1755; first compound 0.8 µM): 0.888
- relative viability (NCI-H1755; first compound 2.53 µM): 0.735
- relative viability (NCI-H1792; first compound 0.08 µM): 0.924
- relative viability (NCI-H1792; first compound 0.253 µM): 0.667
- relative viability (NCI-H1792; first compound 0.8 µM): 0.671
- relative viability (NCI-H1792; first compound 2.53 µM): 0.594
- relative viability (NCI-H1915; first compound 0.08 µM): 1.08
- relative viability (NCI-H1915; first compound 0.253 µM): 1.07
- relative viability (NCI-H1915; first compound 0.8 µM): 1.03
- relative viability (NCI-H1915; first compound 2.53 µM): 1.08
- relative viability (NCI-H1975; first compound 0.08 µM): 0.619
- relative viability (NCI-H1975; first compound 0.253 µM): 0.573
- relative viability (NCI-H1975; first compound 0.8 µM): 0.566
- relative viability (NCI-H1975; first compound 2.53 µM): 0.445
- relative viability (NCI-H2009; first compound 0.08 µM): 1.22
- relative viability (NCI-H2009; first compound 0.253 µM): 1.2
- relative viability (NCI-H2009; first compound 0.8 µM): 1.12
- relative viability (NCI-H2009; first compound 2.53 µM): 0.987
- relative viability (NCI-H2228; first compound 0.08 µM): 0.708
- relative viability (NCI-H2228; first compound 0.253 µM): 0.757
- relative viability (NCI-H2228; first compound 0.8 µM): 0.536
- relative viability (NCI-H2228; first compound 2.53 µM): 0.463
- relative viability (NCI-H23; first compound 0.08 µM): 0.663
- relative viability (NCI-H23; first compound 0.253 µM): 0.659
- relative viability (NCI-H23; first compound 0.8 µM): 0.627
- relative viability (NCI-H23; first compound 2.53 µM): 0.456
- relative viability (NCI-H460; first compound 0.08 µM): 0.679
- relative viability (NCI-H460; first compound 0.253 µM): 0.36
- relative viability (NCI-H460; first compound 0.8 µM): 0.53
- relative viability (NCI-H460; first compound 2.53 µM): 0.359
- relative viability (NCI-H727; first compound 0.08 µM): 0.656
- relative viability (NCI-H727; first compound 0.253 µM): 0.38
- relative viability (NCI-H727; first compound 0.8 µM): 0.626
- relative viability (NCI-H727; first compound 2.53 µM): 0.65
- relative viability (SK-LU-1; first compound 0.08 µM): 0.993
- relative viability (SK-LU-1; first compound 0.253 µM): 0.883
- relative viability (SK-LU-1; first compound 0.8 µM): 1
- relative viability (SK-LU-1; first compound 2.53 µM): 1.07
- relative viability (SW 1573; first compound 0.08 µM): 0.712
- relative viability (SW 1573; first compound 0.253 µM): 0.552
- relative viability (SW 1573; first compound 0.8 µM): 0.515
- relative viability (SW 1573; first compound 2.53 µM): 0.464

Source: the supplement of paper PMC10307832
